Key:
Assay type in all cases: in vivo
rice (Oryra sativa) = assay: Test B flooded paddy test; conditions: Flood, 250 g ai/ha; 0 to 100 scale where 0 is no effect and 100 is complete control; 13 to 15 d
Method: (§1) Plant species in the flooded paddy test selected from rice (Oryra sativa), sedge, umbrella (small-flower umbrella sedge, Cyperus difformis), ducksalad (Heteranthera limosa), and barnyardgrass (Echinochloa crus-galli) were grown to the 2-leaf stage for testing. At time of treatment, test pots were flooded to 3 cm above the soil surface, treated by application of test compounds directly to the paddy water, and then maintained at that water depth for the duration of the test. Treated plants and controls were maintained in a greenhouse for 13 to 15 d, after which time all species were compared to controls and visually evaluated. Plant response ratings, summarized in Table B, are based on a scale of 0 to 100 where 0 is no effect and 100 is complete control. A dash (-) response means no test result.

[1] = tested on: barnyardgrass (Echinochloa crus-galli); assay: Test B flooded paddy test; conditions: Flood, 250 g ai/ha; 0 to 100 scale where 0 is no effect and 100 is complete control; 13 to 15 d
Method: as §1

[2] = tested on: sedge, umbrella (small-flower umbrella sedge, Cyperus difformis); assay: Test B flooded paddy test; conditions: Flood, 250 g ai/ha; 0 to 100 scale where 0 is no effect and 100 is complete control; 13 to 15 d
Method: as §1

[3] = tested on: ducksalad (Heteranthera limosa); assay: Test B flooded paddy test; conditions: Flood, 250 g ai/ha; 0 to 100 scale where 0 is no effect and 100 is complete control; 13 to 15 d
Method: as §1

[4] = tested on: giant foxtail (Setaria faberii); assay: Test A preemergence; conditions: for Plant response rating, Foxtail, Giant: 125 g ai/ha; for Foxtail, Giant plant response rating (0 to 100 scale, 0 is no effect, 100 is complete control): 500 g ai/ha, visual injury approx. 10 d
Description: (§2) Seeds of plant species selected from barnyardgrass (Echinochloa crus-galli), Kochia (Kochia scoparia), ragweed (common ragweed, Ambrosia elatior), ryegrass, Italian (Italian ryegrass, Lolium multiflorum), crabgrass, large (Digitaria sanguinalis), giant foxtail (Setaria faberii), green foxtail (Setaria viridis), morningglory (Ipomoea spp.), pigweed (Amaranthus retroflexus), velvetleaf (Abutilon theophrasti), wheat (Triticum aestivum), and corn (Zea mays) were planted into a blend of loam soil and sand and treated preemergence with a directed soil spray using test chemicals formulated in anon-phytotoxic solvent mixture which included a surfactant.
(§3) At the same time, plants selected from these crop and weed species and also blackgrass (Alopecurus myosuroides), and Galium (catchweed bedstraw, Galium aparine) were planted in pots containing the same blend of loam soil and sand and treated with postemergence applications of test chemicals formulated in the same manner. Plants ranged in height from 2 to 10 cm and were in the one- to two-leaf stage for the postemergence treatment. Treated plants and untreated controls were maintained in a greenhouse for approximately 10 d, after which time all treated plants were compared to untreated controls and visually evaluated for injury. Plant response ratings, summarized in Table A, are based on a 0 to 100 scale where 0 is no effect and 100 is complete control. A dash (-) response means no test result.

[5] = tested on: ragweed (common ragweed, Ambrosia elatior); assay: Test A preemergence; conditions: for Plant response rating, Ragweed: 125 g ai/ha; for Ragweed plant response rating (0 to 100 scale, 0 is no effect, 100 is complete control): 500 g ai/ha, visual injury approx. 10 d
Description: as §2, §3

[6] = tested on: pigweed (Amaranthus retroflexus); assay: Test A preemergence; conditions: for Plant response rating, Pigweed: 125 g ai/ha; for Pigweed plant response rating (0 to 100 scale, 0 is no effect, 100 is complete control): 500 g ai/ha, visual injury approx. 10 d
Description: as §2, §3

[7] = tested on: barnyardgrass (Echinochloa crus-galli); assay: Test A preemergence; conditions: for Plant response rating, Barnyardgrass: 125 g ai/ha; for Barnyardgrass plant response rating (0 to 100 scale, 0 is no effect, 100 is complete control): 500 g ai/ha, visual injury approx. 10 d
Description: as §2, §3

[8] = tested on: ryegrass, Italian (Italian ryegrass, Lolium multiflorum); assay: Test A preemergence; conditions: for Plant response rating, Ryegrass, Italian: 125 g ai/ha; for Ryegrass, Italian plant response rating (0 to 100 scale, 0 is no effect, 100 is complete control): 500 g ai/ha, visual injury approx. 10 d
Description: as §2, §3

Kochia (Kochia scoparia) [9] = assay: Test A preemergence; conditions: for Plant response rating, Kochia: 125 g ai/ha; for Kochia plant response rating (0 to 100 scale, 0 is no effect, 100 is complete control): 500 g ai/ha, visual injury approx. 10 d
Description: as §2, §3

[10] = tested on: giant foxtail (Setaria faberii); assay: Test A postemergence; conditions: for Foxtail, Giant plant response rating: 125 g ai/ha, visual injury rating on 0 to 100 scale (0 no effect, 100 complete control), approx. 10 d; for Plant response rating, Foxtail, Giant: 500 g ai/ha
Description: as §2, §3

[11] = tested on: ragweed (common ragweed, Ambrosia elatior); assay: Test A postemergence; conditions: for Ragweed plant response rating: 125 g ai/ha, visual injury rating on 0 to 100 scale (0 no effect, 100 complete control), approx. 10 d; for Plant response rating, Ragweed: 500 g ai/ha
Description: as §2, §3

[12] = tested on: pigweed (Amaranthus retroflexus); assay: Test A postemergence; conditions: for Pigweed plant response rating: 125 g ai/ha, visual injury rating on 0 to 100 scale (0 no effect, 100 complete control), approx. 10 d; for Plant response rating, Pigweed: 500 g ai/ha
Description: as §2, §3

[13] = tested on: Galium (catchweed bedstraw, Galium aparine); assay: Test A postemergence; conditions: for Galium plant response rating: 125 g ai/ha, visual injury rating on 0 to 100 scale (0 no effect, 100 complete control), approx. 10 d; for Plant response rating, Galium: 500 g ai/ha
Description: as §2, §3

[14] = tested on: wheat (Triticum aestivum); assay: Test A postemergence; conditions: for Wheat plant response rating: 125 g ai/ha, visual injury rating on 0 to 100 scale (0 no effect, 100 complete control), approx. 10 d; for Plant response rating, Wheat: 500 g ai/ha
Description: as §2, §3

corn (Zea mays) = assay: Test A postemergence; conditions: for Corn plant response rating: 125 g ai/ha, visual injury rating on 0 to 100 scale (0 no effect, 100 complete control), approx. 10 d; for Plant response rating, Corn: 500 g ai/ha
Description: as §2, §3

[15] = tested on: barnyardgrass (Echinochloa crus-galli); assay: Test A postemergence; conditions: for Barnyardgrass plant response rating: 125 g ai/ha, visual injury rating on 0 to 100 scale (0 no effect, 100 complete control), approx. 10 d; for Plant response rating, Barnyardgrass: 500 g ai/ha
Description: as §2, §3

[16] = tested on: ryegrass, Italian (Italian ryegrass, Lolium multiflorum); assay: Test A postemergence; conditions: for Ryegrass, Italian plant response rating: 125 g ai/ha, visual injury rating on 0 to 100 scale (0 no effect, 100 complete control), approx. 10 d; for Plant response rating, Ryegrass, Italian: 500 g ai/ha
Description: as §2, §3

Kochia (Kochia scoparia) [17] = assay: Test A postemergence; conditions: for Kochia plant response rating: 125 g ai/ha, visual injury rating on 0 to 100 scale (0 no effect, 100 complete control), approx. 10 d; for Plant response rating, Kochia: 500 g ai/ha
Description: as §2, §3

[18] = tested on: blackgrass (Alopecurus myosuroides); assay: Test A postemergence; conditions: for Blackgrass plant response rating: 125 g ai/ha, visual injury rating on 0 to 100 scale (0 no effect, 100 complete control), approx. 10 d; for Plant response rating, Blackgrass: 500 g ai/ha
Description: as §2, §3

[19] = Preemergence, visual injury after approximately 10 d, 0 to 100 scale where 0 is no effect and 100 is complete control
[20] = Postemergence, 0 to 100 scale where 0 is no effect and 100 is complete control
[21] = preemergence, 0 to 100 scale (0 no effect, 100 complete control)
[22] = postemergence, 0 to 100 scale, 0 no effect, 100 complete control

| Compound | Plant response rating, Rice (rice (Oryra sativa)) | Plant response rating, Barnyardgrass [1] | Plant response rating, Sedge, Umbrella [2] | Plant response rating, Ducksalad [3] | Foxtail, Giant plant response rating (0 to 100 scale, 0 is no effect, 100 is complete control) ([4]; Preemergence) | Ragweed plant response rating (0 to 100 scale, 0 is no effect, 100 is complete control) ([5]; Preemergence) | Pigweed plant response rating (0 to 100 scale, 0 is no effect, 100 is complete control) ([6]; Preemergence) | Barnyardgrass plant response rating (0 to 100 scale, 0 is no effect, 100 is complete control) ([7]; Preemergence) | Ryegrass, Italian plant response rating (0 to 100 scale, 0 is no effect, 100 is complete control) ([8]; Preemergence) | Kochia plant response rating (0 to 100 scale, 0 is no effect, 100 is complete control) (Kochia (Kochia scoparia) [9]; Preemergence) | Foxtail, Giant plant response rating ([10]; postemergence) | Ragweed plant response rating ([11]; postemergence) | Pigweed plant response rating ([12]; postemergence) | Galium plant response rating ([13]; postemergence) | Wheat plant response rating ([14]; postemergence) | Corn plant response rating (corn (Zea mays); postemergence) | Barnyardgrass plant response rating ([15]; postemergence) | Ryegrass, Italian plant response rating ([16]; postemergence) | Kochia plant response rating (Kochia (Kochia scoparia) [17]; postemergence) | Blackgrass plant response rating ([18]; postemergence) | also measured |
| --- | --- | --- | --- | --- | --- | --- | --- | --- | --- | --- | --- | --- | --- | --- | --- | --- | --- | --- | --- | --- | --- |
| COc1ccc(N2CC(c3cccc(C(F)(F)F)c3)C(C(=O)Nc3ccccc3F)C2=O)cc1 (stereo not drawn) [Compound 505] | 0 | 0 | 0 | 0 | 0 | 0 | 0 | 0 | 0 | 0 | 0 | 0 | 0 | 0 | 0 | 0 | 0 | 0 | 0 | 0 | Plant response rating, Foxtail, Giant [4, 19]: 0; Plant response rating, Ragweed [5, 19]: 0; Plant response rating, Pigweed [6, 19]: 0; Plant response rating, Barnyardgrass [7, 19]: 0; Plant response rating, Ryegrass, Italian [8, 19]: 0; Plant response rating, Kochia (Kochia (Kochia scoparia) [9]; [19]): 0; Plant response rating, Foxtail, Giant [10, 20]: 0; Plant response rating, Ragweed [11, 20]: 0; Plant response rating, Pigweed [12, 20]: 10; Plant response rating, Galium [13, 20]: 0; Plant response rating, Wheat [14, 20]: 0; Plant response rating, Corn (corn (Zea mays); [20]): 0; Plant response rating, Barnyardgrass [15, 20]: 0; Plant response rating, Ryegrass, Italian [16, 20]: 0; Plant response rating, Kochia (Kochia (Kochia scoparia) [17]; [20]): 0; Plant response rating, Blackgrass [18, 20]: 0 |
| CCc1ccc(C2CNC(=O)C2C(=O)Nc2ccccc2F)cc1 (stereo not drawn) [Compound 466] | 0 | 0 | 0 | 0 | 90 | 30 | 0 | 90 | 20 | 0 | 20 | 0 | 0 | 0 | 0 | 0 | 80 | 0 | 0 | 30 | Plant response rating, Foxtail, Giant [4, 21]: 70; Plant response rating, Ragweed [5, 21]: 0; Plant response rating, Pigweed [6, 21]: 0; Plant response rating, Barnyardgrass [7, 21]: 90; Plant response rating, Ryegrass, Italian [8, 21]: 0; Plant response rating, Kochia (Kochia (Kochia scoparia) [9]; [21]): 0; Plant response rating, Foxtail, Giant [10, 22]: 80; Plant response rating, Ragweed [11, 22]: 30; Plant response rating, Pigweed [12, 22]: 0; Plant response rating, Galium [13, 22]: 0; Plant response rating, Wheat [14, 22]: 20; Plant response rating, Corn (corn (Zea mays); [22]): 30; Plant response rating, Barnyardgrass [15, 22]: 90; Plant response rating, Ryegrass, Italian [16, 22]: 20; Plant response rating, Kochia (Kochia (Kochia scoparia) [17]; [22]): 0; Plant response rating, Blackgrass [18, 22]: 60 |
